Entries after “also recorded” stand apart in the source; their conditions may differ.

This data set in a line: Trehalose crystallization inhibitory effect of coexisting saccharides in a trehalose syrup over the water solubility (Experiment 2). The class given is physicochemical. As to conditions: trehalose dissolved in an amount over the water solubility; summary of Table 2. Here is the method: Trehalose was dissolved by heating in water in an amount of 1.5-times the water solubility at 10° C., and the trehalose solution was allowed to stand at a relatively-cold place for checking the trehalose crystallization inhibitory effect by saccharides. […] With this relationship, testing solutions were prepared by dissolving by heating in 100 parts by weight of water in a respective glass beaker 83 parts by weight of trehalose, and a saccharide in an amount of 10% to the trehalose, i.e., 8.3 parts by weight of the saccharide selected from the group consisting of glucose, maltose, isomaltose, lactose, maltotriose, panose, maltotetraose, sorbitol, maltitol, maltotriitol, sucrose, raffinose, erlose, saccharides such as α-glucosyltrehalose or monoglucosyltrehalose, α-maltosyltrehalose or diglucosyltrehalose, and α-maltotriosyltrehalose or triglucosyltrehalose as disclosed in Japanese Patent Kokai No.143,876/95 by the present applicant; a saccharide such as α-isomaltosyl-α-glucoside or monoglucosyltrehalose as disclosed in Japanese Patent Kokai No.217,784/96 by the same applicant; and a saccharide such as α-maltosyl-α-maltoside or diglucosyltrehalose as disclosed in Japanese Patent Application No.167,486/94 by the same applicant. Each solution was allowed to stand in a thermostatic place kept at 5, 10 or 15° C. for one week, followed by macroscopically observing the presence of trehalose crystal for evaluating the trehalose crystallization inhibitory effect by the saccharides.
Take `OC[C@H]1O[C@H](O[C@H]2O[C@H](CO)[C@@H](O[C@H]3O[C@H](CO)[C@@H](O[C@H]4O[C@H](CO)[C@@H](O[C@H]5O[C@H](CO)[C@@H](O)[C@H](O)[C@H]5O)[C@H](O)[C@H]4O)[C@H](O)[C@H]3O)[C@H](O)[C@H]2O)[C@H](O)[C@@H](O)[C@@H]1O` [α-Maltotriosyltrehalose, α-maltotriosyltrehalose]: the “Trehalose crystallization inhibitory effect (in words)” value was “specifically and effectively inhibited; also recorded: relatively-low trehalose crystallization inhibitory effect”.

For `OC[C@H]1O[C@H](O[C@H]2[C@H](O)[C@@H](O)[C@@H](O[C@H]3O[C@H](CO)[C@@H](O[C@H]4O[C@H](CO)[C@@H](O)[C@H](O)[C@H]4O)[C@H](O)[C@H]3O)O[C@@H]2CO)[C@H](O)[C@@H](O)[C@@H]1O` [α-Maltosyl-α-maltoside, α-maltosyl-α-maltoside], the “Trehalose crystallization inhibitory effect (in words)” value was “specifically and effectively inhibited”.

Consider `OC[C@H]1O[C@H](OC[C@H]2O[C@H](O[C@H]3O[C@H](CO)[C@@H](O)[C@H](O)[C@H]3O)[C@H](O)[C@@H](O)[C@@H]2O)[C@H](O)[C@@H](O)[C@@H]1O` [α-Isomaltosyl-α-glucoside, α-isomaltosyl-α-glucoside], for which the “Trehalose crystallization inhibitory effect (in words)” value was “specifically and effectively inhibited”.

Values taken from patent US5916881A, “High trehalose content syrup” (Kabushiki Kaisha Hayashibara Seibutsu Kagaku Kenkyujo, priority 1996, dated 1999).
